Source: patent US10925856B2, “Methods and compositions involving bucindolol for the treatment of atrial fibrillation” (priority 2018, dated 2021)
Marks after values point to notes of the source that are not given here.

Key:
[1] = Systolic blood pressure and heart rate by scheduled visit; format: in vivo, human
Source text: Block is defined as the first of any of the following: 1) 3rd degree heart block (complete heart block); 2) any 2nd degree heart block with the presence of symptoms attributable to, and temporally correlated with the occurrence of heart block which include any of the following: Near-fainting or fainting (syncope)/Dizziness; Weakness or Fatigue; Shortness of breath; Chest pain; or 3) 2nd or 3rd degree heart block requiring implantation of a permanent pacemaker (with or without defibrillator). • Data source: • CVEVENT and AE eCRF forms. • Overall incidence and severity of treatment-emergent AEs/SAEs over time during the Total Study Period. Also events associated with device implantation. […] The AEs of special interest will be tabulated according to the following characteristics. • Development of treatment-emergent neoplastic conditions. • Progression or worsening of pre-study neoplastic conditions. • Progression or worsening of treatment-emergent neoplastic conditions. • Data source: • AE, NEOPLHX and NEOPLAS eCRF forms. • Clinical Chemistry and Hematology. • Visit collection: screen, start of follow-up Week 0 (protocol versions 1 and 2), Week 4 (protocol versions 3 and 4), Week 12 (protocol versions 3 and 4), Week 24, every 24 weeks during extension, end of treatment and end of study. […] Randomization Visit measurement prior to first dose will serve as the baseline. Will be analyzed at Week 0, 4, 12 and 24 visits as well as end of treatment and end of study. • Change from baseline to each analysis visit will be calculated and analyzed with descriptive statistics. • The numbers and percentages of patients with QTc increase from baseline exceeding 60 ms at any time point during the study. • Data source: • ECG eCRF form. • Vital signs and weight (data source: VITALS eCRF form). • Measured at every in-clinic visit. Randomization Visit measurement prior to first dose will serve as the baseline. Will be analyzed at Week 0, 4, 12 and 24 visits as well as end of treatment and end of study. • Change from baseline to each analysis visit will be calculated and analyzed with descriptive statistics. • Data source: • VITALS eCRF form. • Proportion of patients attaining target study drug dose during the Drug Titration Period. Will be calculated for all patients, those receiving β-blocker therapy prior to randomization and those not previously receiving β-blocker therapy. • Data Sources: • VISREC and DRUGLOG eCRF forms.

[2] = in vivo; cited from earlier work
plasma norepinephrine = experiment: Plasma norepinephrine (HPLC with electrochemical detection); conditions: for Norepinephrine, ΔWeek 12 Mean ± SEM / Norepinephrine, ΔWeek 12 Median / Norepinephrine, ΔWeek 24 Mean ± SEM / Norepinephrine, ΔWeek 24 Median: change from baseline
[3] = Europe excluding Hungary (n = 48)

CC(C)(Cc1c[nH]c2ccccc12)NCC(O)COc1ccccc1C#N (stereo not drawn) [bucindolol, 2-(3-(1-(1H-indol-3-yl)-2-methylpropan-2-ylamino)-2-hydroxypropoxy)benzonitrile]
Systolic Blood Pressure, Baseline Mean ± SEM ([1]; Baseline): 124.7 ± 1.3 mmHg
Heart Rate, Baseline Mean ± SEM ([1]; Baseline, by ECG): 76.5 ± 1.5 bpm
Systolic Blood Pressure, Mean ± SEM ([1]; Week 4 Change from Baseline): −0.3 ± 1.5 mmHg
Heart Rate, Mean ± SEM ([1]; Week 4 Change from Baseline, by ECG): 0.1 ± 1.6 bpm
Systolic Blood Pressure, Mean ± SEM ([1]; Week 12 Change from Baseline): −0.5 ± 1.8 mmHg
Heart Rate, Mean ± SEM ([1]; Week 12 Change from Baseline, by ECG): −1.5 ± 1.8 bpm
Systolic Blood Pressure, Mean ± SEM ([1]; Week 24 Change from Baseline): −1.1 ± 1.5 mmHg
Heart Rate, Mean ± SEM ([1]; Week 24 Change from Baseline, by ECG): 0.1 ± 2.3 bpm
Bioavailability [2]: approximately 30%
Plasma norepinephrine, Week 4 Mean (plasma norepinephrine; Canada): 583 pg/mL
Plasma norepinephrine, Week 4 Median (plasma norepinephrine; Canada): 551 pg/mL
Plasma norepinephrine, change from baseline to Week 4, Mean ±SEM (plasma norepinephrine; Canada): -59 pg/mL
Plasma norepinephrine, change from baseline to Week 4, Median (plasma norepinephrine; Canada): -1 pg/mL
Norepinephrine, Baseline Mean ± SD (plasma norepinephrine; Canada (n = 59)): 642 ± 341 pg/mL
Norepinephrine, Baseline Median (plasma norepinephrine; Canada (n = 59)): 522 pg/mL
Norepinephrine, Week 12 Mean ± SD (plasma norepinephrine; Canada (n = 59)): 528 ± 252 pg/mL
Norepinephrine, Week 12 Median (plasma norepinephrine; Canada (n = 59)): 484 pg/mL
Norepinephrine, Week 24 Mean ± SD (plasma norepinephrine; Canada (n = 59)): 623 ± 276 pg/mL
Norepinephrine, Week 24 Median (plasma norepinephrine; Canada (n = 59)): 564 pg/mL
Change in NE at Week 4, median (Q1, Q3) (plasma norepinephrine; Entire Cohort): −101 (−241, 43)* pg/ml
Plasma norepinephrine, Week 4 Mean (plasma norepinephrine; Entire Cohort): 563 pg/mL
Plasma norepinephrine, Week 4 Median (plasma norepinephrine; Entire Cohort): 500 pg/mL
Plasma norepinephrine, change from baseline to Week 4, Mean ±SEM (plasma norepinephrine; Entire Cohort): -124 ± 26 pg/mL
Plasma norepinephrine, change from baseline to Week 4, Median (plasma norepinephrine; Entire Cohort): -101 pg/mL
Norepinephrine, Baseline Mean ± SD (plasma norepinephrine; Entire Cohort (n = 267)): 682 ± 349 pg/mL
Norepinephrine, Baseline Median (plasma norepinephrine; Entire Cohort (n = 267)): 607 pg/mL
Norepinephrine, Week 12 Mean ± SD (plasma norepinephrine; Entire Cohort (n = 267)): 570 ± 275 pg/mL
Norepinephrine, Week 12 Median (plasma norepinephrine; Entire Cohort (n = 267)): 520 pg/mL
Norepinephrine, Week 24 Mean ± SD (plasma norepinephrine; Entire Cohort (n = 267)): 631 ± 329 pg/mL
Norepinephrine, Week 24 Median (plasma norepinephrine; Entire Cohort (n = 267)): 545 pg/mL
Plasma norepinephrine, change from baseline to Week 4, Mean ±SEM (plasma norepinephrine; Entire Cohort, listed as Buc): -124 pg/mL
Plasma norepinephrine, Week 4 Mean (plasma norepinephrine; Europe excluding Hungary): 604 pg/mL
Plasma norepinephrine, Week 4 Median (plasma norepinephrine; Europe excluding Hungary): 540 pg/mL
Plasma norepinephrine, change from baseline to Week 4, Mean ±SEM (plasma norepinephrine; Europe excluding Hungary): -126 pg/mL
Plasma norepinephrine, change from baseline to Week 4, Median (plasma norepinephrine; Europe excluding Hungary): -129 pg/mL
Norepinephrine, Baseline Mean ± SD (plasma norepinephrine; [3]): 753 ± 375 pg/mL
Norepinephrine, Baseline Median (plasma norepinephrine; [3]): 691 pg/mL
Norepinephrine, Week 12 Mean ± SD (plasma norepinephrine; [3]): 683 ± 318 pg/mL
Norepinephrine, Week 12 Median (plasma norepinephrine; [3]): 611 pg/mL
Norepinephrine, Week 24 Mean ± SD (plasma norepinephrine; [3]): 798 ± 459 pg/mL
Norepinephrine, Week 24 Median (plasma norepinephrine; [3]): 729 pg/mL
Plasma norepinephrine, Week 4 Mean (plasma norepinephrine; Hungary): 576 pg/mL
Plasma norepinephrine, Week 4 Median (plasma norepinephrine; Hungary): 525 pg/mL
Plasma norepinephrine, change from baseline to Week 4, Mean ±SEM (plasma norepinephrine; Hungary): -208 pg/mL
Plasma norepinephrine, change from baseline to Week 4, Median (plasma norepinephrine; Hungary): −213* pg/ml
Norepinephrine, Baseline Mean ± SD (plasma norepinephrine; Hungary (n = 33)): 767 ± 270 pg/mL
Norepinephrine, Baseline Median (plasma norepinephrine; Hungary (n = 33)): 792 pg/mL
Norepinephrine, Week 12 Mean ± SD (plasma norepinephrine; Hungary (n = 33)): 638 ± 254 pg/mL
Norepinephrine, Week 12 Median (plasma norepinephrine; Hungary (n = 33)): 690 pg/mL
Norepinephrine, Week 24 Mean ± SD (plasma norepinephrine; Hungary (n = 33)): 711 ± 267 pg/mL
Norepinephrine, Week 24 Median (plasma norepinephrine; Hungary (n = 33)): 736 pg/mL
Plasma norepinephrine, Week 4 Mean (plasma norepinephrine; U.S.): 529 pg/mL
Plasma norepinephrine, Week 4 Median (plasma norepinephrine; U.S.): 473 pg/mL
Plasma norepinephrine, change from baseline to Week 4, Mean ±SEM (plasma norepinephrine; U.S.): -136 pg/mL
Plasma norepinephrine, change from baseline to Week 4, Median (plasma norepinephrine; U.S.): -101 pg/mL
Norepinephrine, Baseline Mean ± SD (plasma norepinephrine; U.S. (n = 127)): 650 ± 362 pg/mL
Norepinephrine, Baseline Median (plasma norepinephrine; U.S. (n = 127)): 598 pg/mL
Norepinephrine, Week 12 Mean ± SD (plasma norepinephrine; U.S. (n = 127)): 529 ± 267 pg/mL
Norepinephrine, Week 12 Median (plasma norepinephrine; U.S. (n = 127)): 466 pg/mL
Norepinephrine, Week 24 Mean ± SD (plasma norepinephrine; U.S. (n = 127)): 585 ± 336 pg/mL
Norepinephrine, Week 24 Median (plasma norepinephrine; U.S. (n = 127)): 498 pg/mL
Degree of reduction in NE by median values (plasma norepinephrine; Week 4, Hungary): 213 pg/mL
Degree of reduction in NE by median values (plasma norepinephrine; Week 4, U.S.): 101 pg/mL
Degree of reduction in NE by median values (plasma norepinephrine; Week 4, rest of Europe): 121 pg/mL
Reduction in NE (plasma norepinephrine; Week 12, Canada): 100 pg/mL
Reduction in NE (plasma norepinephrine; Week 24, Canada): 21 pg/mL
Reduction in NE (plasma norepinephrine; Week 24, Hungary): 193 pg/mL
Reduction in NE (plasma norepinephrine; Week 24, U.S.): 46 pg/mL
Norepinephrine, ΔWeek 12 Mean ± SEM (plasma norepinephrine; Canada (n = 59)): -133 ± 48 pg/mL
Norepinephrine, ΔWeek 12 Median (plasma norepinephrine; Canada (n = 59)): -100 pg/mL
Norepinephrine, ΔWeek 24 Mean ± SEM (plasma norepinephrine; Canada (n = 59)): -38 ± 54 pg/mL
Norepinephrine, ΔWeek 24 Median (plasma norepinephrine; Canada (n = 59)): -21 pg/mL
Norepinephrine, ΔWeek 12 Mean ± SEM (plasma norepinephrine; Entire Cohort (n = 267)): -118 ± 27 pg/mL
Norepinephrine, ΔWeek 12 Median (plasma norepinephrine; Entire Cohort (n = 267)): -100 pg/mL
Norepinephrine, ΔWeek 24 Mean ± SEM (plasma norepinephrine; Entire Cohort (n = 267)): -64 ± 31 pg/mL
Norepinephrine, ΔWeek 24 Median (plasma norepinephrine; Entire Cohort (n = 267)): -47 pg/mL
Norepinephrine, ΔWeek 12 Mean ± SEM (plasma norepinephrine; [3]): -34 ± 51 pg/mL
Norepinephrine, ΔWeek 12 Median (plasma norepinephrine; [3]): -55 pg/mL
Norepinephrine, ΔWeek 24 Mean ± SEM (plasma norepinephrine; [3]): 56 ± 152 pg/mL
Norepinephrine, ΔWeek 24 Median (plasma norepinephrine; [3]): -82 pg/mL
Norepinephrine, ΔWeek 12 Mean ± SEM (plasma norepinephrine; Hungary (n = 33)): -172 ± 63 pg/mL
Norepinephrine, ΔWeek 12 Median (plasma norepinephrine; Hungary (n = 33)): -171 pg/mL
Norepinephrine, ΔWeek 24 Mean ± SEM (plasma norepinephrine; Hungary (n = 33)): -132 ± 296 pg/mL
Norepinephrine, ΔWeek 24 Median (plasma norepinephrine; Hungary (n = 33)): -193 pg/mL
Norepinephrine, ΔWeek 12 Mean ± SEM (plasma norepinephrine; U.S. (n = 127)): -128 ± 49 pg/mL
Norepinephrine, ΔWeek 12 Median (plasma norepinephrine; U.S. (n = 127)): -86 pg/mL
Norepinephrine, ΔWeek 24 Mean ± SEM (plasma norepinephrine; U.S. (n = 127)): -86 ± 40 pg/mL
Norepinephrine, ΔWeek 24 Median (plasma norepinephrine; U.S. (n = 127)): -46 pg/mL
Degree of reduction in NE by median values (plasma norepinephrine; week 4, entire cohort): 101 pg/mL
Reduction in NE (plasma norepinephrine; week 24, entire cohort): 47 pg/mL
